Results on ten compounds are retold here after ChEMBL document CHEMBL1201862, “PubChem BioAssay data set” (2004).

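Following 48 hours of exposure in 96-well plates, responses at five concentrations were used to interpolate endpoints linearly. GI50 = concentration required for 50% inhibition of growth.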 Calls of active or inactive are those of the source. No stated cut-off is given here; in the data, active = GI50 up to about 1.1 µM and inactive = higher.

By GI50 is commonly meant the concentration at which growth is held to half of that of the control.

Some test systems named below: SNB-19; M14; RPMI-8226; SF-295; UACC-257; CAKI-1; RXF 393; A549; KM12; IGROV-1; SNB-75; U-251; NCI-H23; K562; SK-OV-3; CCRF-CEM; 786-0; NCI-H226; HT-29; SF-268.
Test in all cases: DTP human tumour cell line panel, 48 h

As for `Clc1cccc(N/N=N/c2ccc(-c3nc4ccccc4s3)cc2)c1`, the GI50 was 86.1 µM (inactive) with SNB-19; 34.8 µM (inactive) in the experiment with M14; 58.7 µM (inactive) with RPMI-8226; > 100 µM (inactive) in the experiment with SF-295; > 100 µM (inactive) in the experiment on UACC-257; 53.8 µM (inactive) with CAKI-1. In addition, the GI50 with RXF 393 is 27.2 µM (inactive); in the experiment with A549 it was 82.4 µM (inactive); in the experiment with KM12, > 100 µM (inactive); with IGROV-1, 21.4 µM (inactive); in the experiment on SNB-75 it was 30.3 µM (inactive); in the experiment on U-251 it was 36.9 µM (inactive). In addition, the GI50 with NCI-H23 is 24.5 µM (inactive); in the experiment on K562 it was 28.6 µM (inactive); in the experiment with SK-OV-3 it was 42.3 µM (inactive); in the experiment with CCRF-CEM it was 21 µM (inactive); in the experiment on 786-0 it was 22.2 µM (inactive); in the experiment on NCI-H226, 94.8 µM (inactive). Moreover, the GI50 with HT-29 was > 100 µM (inactive).

Regarding `COC(=O)C[C@H](COCc1ccccc1)NC(=O)C[C@H](COCc1ccccc1)NC(=O)C[C@H](COCc1ccccc1)NC(=O)OC(C)(C)C`, the GI50 in the experiment on SF-268 was 41.5 µM (inactive); with SNB-19 it was > 100 µM (inactive); with M14, 54.6 µM (inactive); in the experiment with RPMI-8226, > 100 µM (inactive); with SF-295 it was 88.9 µM (inactive); with CAKI-1, > 100 µM (inactive). Also, the GI50 is 20.9 µM (inactive) in the experiment with RXF 393; 38.5 µM (inactive) in the experiment with A549; > 100 µM (inactive) in the experiment with KM12; > 100 µM (inactive) in the experiment with IGROV-1; 13.1 µM (inactive) in the experiment with SNB-75; 94 µM (inactive) in the experiment with U-251. Also, the GI50 in the experiment with NCI-H23 was > 100 µM (inactive); in the experiment on K562, > 100 µM (inactive); in the experiment with SK-OV-3, 60.8 µM (inactive); with CCRF-CEM it was > 100 µM (inactive); in the experiment on 786-0 it was 18 µM (inactive); with NCI-H226, > 100 µM (inactive). Besides, the GI50 in the experiment with HT-29 was 72.8 µM (inactive).

On to `CSc1c(C#N)c(O)n(-c2ccc(C)cc2)c(=O)c1C#N`, for which the GI50 in the experiment on SF-268, in the experiment with SNB-19, with M14, in the experiment with RPMI-8226, with UACC-257 and in the experiment with CAKI-1 was > 100 µM (inactive) throughout. For the same compound, the GI50 with RXF 393, with A549, in the experiment on KM12, in the experiment on IGROV-1, in the experiment with SNB-75 and in the experiment with U-251 was > 100 µM (inactive) each time. Further, the GI50 in the experiment on NCI-H23, in the experiment on K562, in the experiment with SK-OV-3, in the experiment with 786-0, in the experiment on NCI-H226 and with HT-29 was > 100 µM (inactive) in each case.

Regarding `NCCCCNCCCNC(=O)c1nc(-c2csc(CCN)n2)sc1Cl`, the GI50 in the experiment on SF-268 was 62.7 µM (inactive); with SNB-19, > 100 µM (inactive); with M14, > 100 µM (inactive); in the experiment with RPMI-8226 it was > 100 µM (inactive); in the experiment with SF-295 it was > 100 µM (inactive); with UACC-257, > 100 µM (inactive). For the same compound, the GI50 with CAKI-1, with RXF 393, with A549, in the experiment on KM12, with IGROV-1 and with SNB-75 was > 100 µM (inactive) each time. For the same compound, the GI50 with U-251 is > 100 µM (inactive); in the experiment with NCI-H23, > 100 µM (inactive); in the experiment with K562 it was 49.5 µM (inactive); in the experiment on SK-OV-3 it was > 100 µM (inactive); in the experiment with CCRF-CEM, > 100 µM (inactive); with NCI-H226, > 100 µM (inactive). The GI50 with HT-29 is > 100 µM (inactive).

Turning to `O=S1(=O)C(=C(c2ccccc2)c2ccccc2)S(=O)(=O)c2ccccc21`, the GI50 is > 72.6 µM (inactive) with SF-268; > 58.1 µM (inactive) with SNB-19; > 100 µM (inactive) in the experiment on RPMI-8226; 33.8 µM (inactive) with SF-295; > 100 µM (inactive) with UACC-257; > 87.5 µM (inactive) with CAKI-1. Moreover, the GI50 with RXF 393 was 34.1 µM (inactive); with A549, > 100 µM (inactive); in the experiment with KM12 it was > 100 µM (inactive); in the experiment on IGROV-1, > 95.5 µM (inactive); in the experiment on SNB-75, 20.2 µM (inactive); with U-251 it was 51.6 µM (inactive). For the same compound, the GI50 was > 63.2 µM (inactive) with NCI-H23; > 100 µM (inactive) in the experiment with K562; > 56.5 µM (inactive) with SK-OV-3; > 100 µM (inactive) with CCRF-CEM; > 60.3 µM (inactive) in the experiment with NCI-H226; > 100 µM (inactive) with HT-29.

`COc1ccc2c(c1)CN1C(=N2)CSC1c1cccc(Br)c1` (stereo not drawn): the GI50 in the experiment with SF-268 was 52.8 µM (inactive); in the experiment with SNB-19, 47.3 µM (inactive); in the experiment on M14 it was 52.1 µM (inactive); in the experiment on RPMI-8226, 6.44 µM (inactive); with SF-295 it was 30.5 µM (inactive); with UACC-257, 20.3 µM (inactive). The GI50 in the experiment on CAKI-1 is 16.3 µM (inactive); with RXF 393, 19.9 µM (inactive); in the experiment with A549 it was 30.6 µM (inactive); with KM12, 19.1 µM (inactive); with IGROV-1, 43.9 µM (inactive); in the experiment with SNB-75 it was 14.9 µM (inactive). The GI50 with U-251 was 26.5 µM (inactive); in the experiment with NCI-H23, 17.7 µM (inactive); with K562, 5.89 µM (inactive); in the experiment on SK-OV-3 it was > 100 µM (inactive); in the experiment with 786-0 it was 17.8 µM (inactive); with NCI-H226, 4.86 µM (inactive). Also, the GI50 in the experiment on HT-29 is 20 µM (inactive).

In the case of `O=C1C(Cl)=C(Cl)C(=O)N1C1C2CC3CC(C2)CC1C3` (stereo not drawn), the GI50 in the experiment with SF-268 was > 100 µM (inactive); with SNB-19, > 100 µM (inactive); in the experiment with M14, > 100 µM (inactive); in the experiment with RPMI-8226 it was 27 µM (inactive); with SF-295 it was > 100 µM (inactive); in the experiment on UACC-257 it was > 100 µM (inactive). Moreover, the GI50 in the experiment on CAKI-1 was 38.3 µM (inactive); in the experiment on RXF 393 it was 94.6 µM (inactive); in the experiment with A549 it was > 100 µM (inactive); in the experiment on IGROV-1, > 100 µM (inactive); with SNB-75 it was > 100 µM (inactive); in the experiment on U-251, > 100 µM (inactive). Further, the GI50 in the experiment on NCI-H23 was > 100 µM (inactive); with K562, 28 µM (inactive); in the experiment on SK-OV-3, > 100 µM (inactive); with CCRF-CEM it was 19.3 µM (inactive); in the experiment on 786-0, > 100 µM (inactive); with NCI-H226, > 100 µM (inactive). In addition, the GI50 in the experiment with HT-29 was > 100 µM (inactive).

As for `Cc1ccc(C(=O)N/N=C(\N=N\c2ccccc2)c2ccc(N(CCC#N)CCC#N)cc2C)cc1`, the GI50 in the experiment with SF-268 was 24.2 µM (inactive); with SNB-19 it was 58.3 µM (inactive); in the experiment on M14 it was > 100 µM (inactive); with RPMI-8226, > 100 µM (inactive); with SF-295, 86.5 µM (inactive); in the experiment on UACC-257, 82.4 µM (inactive). For the same compound, the GI50 with CAKI-1 was 64.6 µM (inactive); in the experiment on RXF 393, 38.9 µM (inactive); in the experiment with A549 it was > 100 µM (inactive); in the experiment with KM12 it was > 100 µM (inactive); with IGROV-1 it was > 100 µM (inactive); in the experiment with SNB-75 it was 34 µM (inactive). In addition, the GI50 in the experiment on U-251 is 92.5 µM (inactive); with NCI-H23, 85.7 µM (inactive); in the experiment on K562, > 100 µM (inactive); in the experiment on SK-OV-3, 74 µM (inactive); in the experiment with CCRF-CEM, > 100 µM (inactive); in the experiment with NCI-H226, 54.8 µM (inactive). In addition, the GI50 in the experiment with HT-29 is 35.1 µM (inactive).

Consider `CC(=O)C1(Cc2cccc3ccccc23)S(=O)(=O)OCCOS1(=O)=O`, for which the GI50 was 19.9 µM (inactive) with SF-268; 18.4 µM (inactive) in the experiment on SNB-19; 23.4 µM (inactive) in the experiment with M14; 19.5 µM (inactive) in the experiment on RPMI-8226; 0.843 µM (active) in the experiment with SF-295; 4.11 µM (inactive) in the experiment on UACC-257. Besides, the GI50 in the experiment on CAKI-1 was 15.9 µM (inactive); with RXF 393 it was 12.7 µM (inactive); in the experiment on KM12 it was 15.4 µM (inactive); in the experiment on IGROV-1 it was 4.69 µM (inactive); in the experiment with SNB-75, 35.4 µM (inactive); with U-251 it was 16.7 µM (inactive). The GI50 in the experiment with NCI-H23 is 22.9 µM (inactive); in the experiment with K562, 28.4 µM (inactive); in the experiment with SK-OV-3 it was 2.72 µM (inactive); with CCRF-CEM, 38.7 µM (inactive); with 786-0, 23.5 µM (inactive); in the experiment on NCI-H226 it was 16.8 µM (inactive). Also, in the experiment with HT-29, the GI50 was 17.5 µM (inactive).

Take `C[n+]1c2ccccc2c(NC(CCCNC(=N)N)C(=O)O)c2ccccc21` (stereo not drawn): the GI50 is > 100 µM (inactive) in the experiment with SF-268; > 100 µM (inactive) with SNB-19; > 100 µM (inactive) in the experiment with M14; 7.55 µM (inactive) in the experiment with RPMI-8226; > 100 µM (inactive) in the experiment with SF-295; > 100 µM (inactive) in the experiment on UACC-257. Further, the GI50 in the experiment on CAKI-1, with RXF 393, in the experiment on A549, in the experiment with KM12, in the experiment with IGROV-1 and in the experiment on SNB-75 was > 100 µM (inactive) in each case. Further, the GI50 in the experiment with U-251, in the experiment on NCI-H23, in the experiment on K562, in the experiment on SK-OV-3, in the experiment on 786-0 and in the experiment with NCI-H226 was > 100 µM (inactive) throughout. The GI50 in the experiment with HT-29 is > 100 µM (inactive).
